Series [1] deals with NK cells. Description: Earlier phase 1 clinical trial: absolute NK cell counts after multiple dosing. Format: in vivo, human. Conditions: any dose level (1, 3, or 10 mg). The method, then:
Compound 1 was evaluated in a phase 1 clinical trial and dosed in humans through nebulized inhalation at 1 mg, 3 mg, and 10 mg for up to 7 days. […] The pharmacokinetics of inhaled compound 1 are consistent with low plasma exposures after inhaled administration. […] Additionally, absolute NK cell counts were evaluated after multiple-dosing to assess the potential for systemic pharmacologic effects associated with JAK inhibition by compound 1. […] The lack of reduction in NK cell counts is also consistent with the lack of systemic JAK inhibition. […] Other systemically mediated hematological changes associated with JAK inhibition, including neutrophil and hemoglobin reductions as well as lipid changes, were not observed with inhaled administration of compound 1.

For series [2], the target named is JAK1 (Homo sapiens, UniProt P23458). Description: JAK enzyme inhibition. It counts as biochemical.
JAK1, sequence (P23458 whole entry): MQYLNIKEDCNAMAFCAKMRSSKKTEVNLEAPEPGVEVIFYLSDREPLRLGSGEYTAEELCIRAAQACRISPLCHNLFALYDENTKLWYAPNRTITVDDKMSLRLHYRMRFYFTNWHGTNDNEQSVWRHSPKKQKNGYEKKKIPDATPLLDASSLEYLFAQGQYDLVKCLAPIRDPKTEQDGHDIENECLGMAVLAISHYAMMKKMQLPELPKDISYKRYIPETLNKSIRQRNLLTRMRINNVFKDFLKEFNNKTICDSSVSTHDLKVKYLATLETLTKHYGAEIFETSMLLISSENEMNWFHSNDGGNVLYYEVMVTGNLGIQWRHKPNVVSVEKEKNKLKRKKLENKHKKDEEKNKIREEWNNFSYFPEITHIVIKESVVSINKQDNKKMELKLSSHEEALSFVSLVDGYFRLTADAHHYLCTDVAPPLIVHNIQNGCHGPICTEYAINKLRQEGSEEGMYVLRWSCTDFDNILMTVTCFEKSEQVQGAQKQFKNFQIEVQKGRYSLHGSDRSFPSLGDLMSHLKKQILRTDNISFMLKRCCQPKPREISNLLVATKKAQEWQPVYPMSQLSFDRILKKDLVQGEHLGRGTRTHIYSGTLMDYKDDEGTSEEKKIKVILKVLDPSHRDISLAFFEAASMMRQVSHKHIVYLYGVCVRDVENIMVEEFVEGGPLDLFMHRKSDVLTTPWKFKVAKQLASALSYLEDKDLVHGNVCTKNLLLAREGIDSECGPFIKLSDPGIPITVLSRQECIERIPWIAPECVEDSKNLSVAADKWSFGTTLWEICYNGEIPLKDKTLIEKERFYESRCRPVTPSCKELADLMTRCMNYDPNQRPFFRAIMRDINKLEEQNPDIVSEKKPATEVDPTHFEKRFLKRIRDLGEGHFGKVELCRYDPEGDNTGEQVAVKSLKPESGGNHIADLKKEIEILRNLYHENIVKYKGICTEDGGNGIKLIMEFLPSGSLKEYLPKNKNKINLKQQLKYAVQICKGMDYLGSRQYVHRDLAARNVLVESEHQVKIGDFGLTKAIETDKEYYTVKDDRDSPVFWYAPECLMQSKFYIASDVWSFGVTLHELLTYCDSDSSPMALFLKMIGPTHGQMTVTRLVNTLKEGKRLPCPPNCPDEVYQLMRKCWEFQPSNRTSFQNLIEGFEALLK
The nature of series [3]: Phase 2 clinical study in subjects infected with COVID: safety. Format: in vivo, human. The text has this: Compound 1 was well-tolerated. Adverse events and serious adverse events occurred in 34.0% and 9.7% of subjects treated with compound 1, and 41.2% and 15.7% of subjects treated with placebo, respectively. Adverse events of liver abnormalities or disease occurred in 9.7% and 7.8% of subjects treated with compound 1 and placebo, respectively. Serious infections and venous thromboembolism occurred in 1.0% and none of the subjects treated with compound 1, and 2.0% and 4.9% in subjects treated with placebo, respectively.

For series [4], the system named is subjects infected with COVID. Put plainly: Phase 2 clinical study in subjects infected with COVID: efficacy. Format: in vivo, human. The settings on record: for time to recovery, median: vs placebo 11; for 28-day all-cause mortality, HR / time to recovery, HR: vs placebo. The method, then:
Compound 1 has been studied in a phase 2 clinical study in subjects infected with COVID.
Importantly, in a post-hoc analysis of subjects with baseline CRP (n=201), in subjects with CRP <150 mg/L (n=171), there was an improvement in those treated with compound 1 when compared to placebo in: • 28-day all-cause mortality (total number of deaths: 1 vs 9, HR: 0.097, p=0.009). • time to recovery (median: 10 vs. 11 days, HR: 1.48, p=0.02).
In subjects with CRP >150 mg/L (n=30), there was no difference in time to recovery or 28-day all-cause mortality between those treated with compound 1 or placebo.

Series [5] is described as follows: Phase 1 open-label study: safety and tolerability of single inhaled nezulcitinib doses under supplemental oxygenation scenarios. It counts as in vivo, human. The text has this:
Part B: assessed the safety and tolerability of nezulcitinib following single inhaled doses administered in the setting of various supplemental oxygenation scenarios in healthy participants.
Safety was monitored through physical examinations including, at a minimum, examination of respiratory, cardiovascular, and gastrointestinal systems, with the option for further focused examination of additional systems as necessary based on reported symptoms/AEs, vital signs, 12-lead safety ECGs, spirometry, body weight monitoring, pulse oximetry, clinical laboratory tests (including, but not limited to, hematology, clinical chemistry profile, coagulation, and urinalysis), and AEs.
AEs were coded using the most current version of Medical Dictionary for Regulatory Activities (MedDRA®).
Summaries of administration-emergent adverse events (AEAEs) were presented by SOC, preferred term, and the frequency and percentage of participants reporting each observed event. The frequency of participants who experience AEAEs was summarized overall and by study part and administration. AEs were also summarized by relationship to administration (study drug) and severity.
All clinical laboratory results, 12-lead safety ECGs, spirometry measurements, pulse oximetry, vital signs measurements, and their change from baseline, were summarized by study part, administration, and time point of collection.
Safety (i.e., physical examinations, vital signs, 12-lead safety ECGs, spirometry, clinical laboratory tests, and AEs) were assessed throughout the study; blood, urine, and expired air samples were collected for safety assessments. Blood oxygenation levels were monitored via pulse oximetry prior to and during administration of supplemental oxygen. Discontinued participants were not replaced.

On to `CCc1cc(O)ccc1-c1ccc2c(-c3nc4c([nH]3)CN(C(C)C)[C@H](C(=O)N3CC(N(C)C)C3)C4)n[nH]c2c1` [Compound 1, (S)-(3-(dimethylamino)azetidin-1-yl)(2-(6-(2-ethyl-4-hydroxyphenyl)-1H-indazol-3-yl)-5-isopropyl-4,5,6,7-tetrahydro-3H-imidazo[4,5-c]pyridin-6-yl)methanone], for which the “absolute NK cell counts relative to baseline” value in series [1] is recorded as “No reductions in NK cells were observed”. Moreover, the “inhibition of JAK1” value in series [2] is on record as “potent inhibitor”. Moreover, the tolerability result in series [3] is “well-tolerated”. Also, in series [3] (placebo 2.0%), the “serious infections, subjects” value was found to be 1.0%. Moreover, in series [3] (placebo 4.9%), the “venous thromboembolism, subjects” value was “none”. Further, the “adverse events of liver abnormalities or disease, subjects” value in series [3] (placebo 7.8%) worked out at 9.7%. Also, the “serious adverse events, subjects” value in series [3] (placebo 15.7%) was found to be 9.7%. Also, the “adverse events, subjects” value turned out to be 34.0% in series [3] (placebo 41.2%) and 14.3% in series [5] (2 of 14 subjects, nasal congestion, epistaxis, considered not related to study drug). In addition, in series [4] (ITT), the “change from baseline at Day 7 in SaO2/FiO2 ratio, 8-point Clinical Status scale categories, proportion alive and respiratory failure-free at Day 28, vs placebo” value was “no difference”. Further, the “RFDs (respiratory failure-free days) from randomization through Day 28, median” value in series [4] (ITT, vs placebo 21, p=0.61) is listed as 21 days. The “time to recovery, median” value was found to be 10 days in series [4] (all subjects) and 10 days in series [4] (post-hoc, baseline CRP <150 mg/L). Besides, the “28-day all-cause mortality, total number of deaths” value in series [4] (all subjects, vs placebo 13) stood at 6; in series [4] (post-hoc, subjects with baseline CRP <150 mg/L (n=171), vs placebo 9) it was 1. For the same compound, the “28-day all-cause mortality, HR” value in series [4] (all subjects, p=0.08) turned out to be 0.42; in series [4] (post-hoc, baseline CRP <150 mg/L, p=0.009), 0.097. For the same compound, the “time to recovery, HR” value stood at 1.27 in series [4] (all subjects, p=0.12) and 1.48 in series [4] (post-hoc, baseline CRP <150 mg/L, p=0.02). Also, the “time to recovery or 28-day all-cause mortality vs placebo” value in series [4] (subjects with CRP >150 mg/L (n=30)) is “no difference”. In series [5] (all administrations), the “safety laboratory measures, electrocardiograms, vital signs, pulse oximetry, spirometry” value is listed as “no clinically relevant changes”. Further, the “severity of adverse events” value in series [5] (all adverse events) is listed as “mild severity”.

Values taken from patent publication US20250288561A1, “NEZULCITINIB FOR DELIVERY BY NEBULIZED ORAL INHALATION” (THERAVANCE BIOPHARMA R&D IP, LLC, priority 2022, published 2025).
